# How the values were obtained:
# [1] = test system: human lung cancer stem cells (hLCSCs); assay: Autophagy inhibition in lung cancer stem cells; assay type: cell-based
# Excerpt: (§1) Cancer stem cells (CSCs), a subpopulation of cells within tumors, actually drive tumor growth and recurrence. CSCs are resistant to many current cancer treatments, including chemo- and radiation therapy, thus they can survive these therapy to regenerate new tumors. […] Therefore, it is of great interest to assess the anti-tumor effects of vacuolin-1 on CSCs.
# [2] = test system: human lung cancer stem cells (hLCSCs); assay: Invasion of hLCSCs; assay type: cell-based; conditions: >10 μM
# Excerpt: as §1
# [3] = test system: HeLa cells; assay: Lysosomal pH measurement (LysoSensor Green DND-189, LysoSensor Yellow/Blue DND-160); assay type: cell-based; conditions: 1 μM
# Method: Lysosomal pH measurement—LysoSensor Green DND-189 is commonly used to measure the pH of acidic organelles, such as lysosomes, which become more fluorescent in acidic environments. Briefly, cells were loaded with 1 μMLysoSensor Green DND-189 in pre-warmed regular medium for 20 min at 37° C. Then the cells were washed twice with PBS and immediately analyzed by flow cytometry (collecting FL1 fluorescence and 10,000 cells were collected for each sample) or in a microplate reader (excitation/emission=485/530 nm).
# Quantification of lysosomal pH was performed using a ratiometriclysosomal pH dye LysoSensor Yellow/Blue DND-160. The pH calibration curve was generated as described previously (Bankers-Fulbright et al., 2004). Briefly, cells were trypsinized and labeled with 2 μM Lysosensor Yellow/Blue DND-160 for 30 min at 37° C. in regular medium, and excessive dye was washed out using PBS. […] Quantitative comparisons were performed in a 96-well plate, and the fluorescence was measured with a microplate reader at 37° C. Light emitted at 440 and 535 nm in response to excitation at 340 and 380 nm were measured, respectively. The ratio of light emitted with 340 and 380 nm excitation was plotted against the pH values in IVIES buffer, and the pH calibration curve for the fluorescence probe was generated from the plot using Microsoft Excel.
# [4] = test system: CNE-1 and HONE-1 cells; assay type: cell-based, human
# Method: Although CQ has already been applied to treat a wide spectrum of human cancers, CQ induces ocular or renal toxicity and easily triggers drug resistance (Kimura et al., 2013). […] We first investigated the anti-tumor effects of vacuolin-1 in two nasopharyngeal carcinoma cell lines, CNE-1 and HONE-1. […] Alternatively, colony formation assay was performed to assess whether vacuolin-1 affects the ability of a single tumor cell to grow into a colony. […] We subsequently performed wound healing assay to assess whether vacuolin-1 affects the migration of tumor cells. […] Obviously, vacuolin-1 is an efficient anti-tumor agent in vitro.
# [5] = test system: HeLa cells; assay: GPN induced lysosomal Ca2+ release in Fura-2 loaded cells; assay type: cell-based; conditions: 1 μM pretreatment 5 hours, GPN 200 μM
# Method: Intracellular Ca^2+ measurement—Cells were cultured in 24-well plates at the density of 7×10^4 cells/well in regular medium overnight and were labeled with 4 μM Fura-2 AM (Invitrogen) in regular HMSS at room temperature for 30 min. The cells were then washed with calcium-free HMSS containing 2 mM EGTA three times and incubated in the presence or absence of vacuolin-1 at room temperature for another 10 min. Cells were put on the stage of an Olympus inverted epifluorescence microscope and visualized using a 20× objective. Fluorescence images were obtained by alternate excitation at 340 nm and 380 nm with emission set at 510 nm. Images were collected by a CCD camera every 3 or 6 seconds and analyzed by Cell R imaging software.
# Since lysosome is also a major intracellular Ca^2+ pool, and Ca^2+ and protons are tightly coupled in lysosomes (Morgan et al., 2011), it was also assessed whether vacuolin-1 treatment affects the lysosomal Ca^2+ content. Treatment of cells with glycyl-1-phenylalanine 2-naphthylamide (GPN) selectively disrupts the lysosomal membrane (Jadot et al., 2001), thereby releasing the lysosomal Ca^2+ (Srinivas et al., 2002).
# [6] = test system: human lung cancer stem cells (hLCSCs); assay: Cell proliferation of lung cancer stem cells; assay type: cell-based
# Excerpt: as §1
# [7] = test system: human lung cancer stem cells (hLCSCs); assay: Migration of hLCSCs; assay type: cell-based; conditions: >10 μM
# Excerpt: as §1
# [8] = test system: HeLa cells; assay: Transmission electron microscopy of treated cells; assay type: cell-based
# Method: Cell preparation for transmission electron microscopy (TEM)—Cell preparation for TEM was performed as described previously (Mi et al., 2007).
# [9] = test system: RFP-GFP-LC3 expressing HeLa cells; assay: RFP-GFP-LC3 (tfLC3) fluorescence image-based autophagy assay; assay type: cell-based
# Excerpt: Prompted by the fact that many available autophagy chemical modulators lack either potency or specificity (Kimura et al., 2013), a fluorescence image-based assay was set up to screen small molecules affecting autophagy. HeLa cells, an autophagy competent cell line, were infected with lentiviruses carrying expression cassettes that encode RFP-GFP-LC3 (tfLC3) (Kimura et al., 2007). Thus, the LC3-II positive autophagosomes are labeled with both GFP and RFP signals shown as yellow puncta, and after fusion with lysosomes, autolysosomes are shown as red only puncta because GFP loses its fluorescence in acidic pH.
# Next, a panel of small chemicals that are commercially available and have been previously shown to affect vesicle trafficking or organelle morphology were selected and screened for their effects on autophagy regulation in tfLC3 expressing HeLa cells (data not shown).
# [10] = target: T1, V-ATPase (purified V1V0 holoenzyme) (Manduca sexta, UniProt P31400); assay: In vitro V-ATPase assay; assay type: biochemical, M. sexta
# T1 construct: Assays contained 3 μg of purified V1V0 holoenzyme; from tissue; host or cells: Fifth instar larvae of M. sexta; The midgut goblet cell apical membrane is named only in the title of the cited Wieczorek et al. 1990, not in the method text
# Method: V-ATPase assay—Fifth instar larvae of M. sexta (Lepidoptera, Sphingidae), weighing 6-8 g, were reared under long day conditions (16 h of light) at 27° C. using the gypsy moth diet (MP Biomedicals, Germany). The purification of the V1VO holoenzyme was performed as previously described (Huss et al., 2002). Activity assays were performed in triplicate in a final volume of 160 μL and at a pH of 8.1. Assays contained 3 μg of purified V1V0 holoenzyme, 50 mM Tris-Mops, 3 mM 2-mercaptoethanol, 1 mM MgCl2, 20 mM KCl, 0.003% C12E10, 20 mM NaCl, and 3 mM Tris-HCl. After 10 min of preincubation at 30° C., with or without inhibitors, 1 mM Tris-ATP was added and after an incubation for 2 min at 30° C. the reaction was stopped by freezing the samples in liquid nitrogen. Inorganic phosphate was determined as previously described (Wieczorek et al., 1990).
# T1 sequence (P31400 whole entry): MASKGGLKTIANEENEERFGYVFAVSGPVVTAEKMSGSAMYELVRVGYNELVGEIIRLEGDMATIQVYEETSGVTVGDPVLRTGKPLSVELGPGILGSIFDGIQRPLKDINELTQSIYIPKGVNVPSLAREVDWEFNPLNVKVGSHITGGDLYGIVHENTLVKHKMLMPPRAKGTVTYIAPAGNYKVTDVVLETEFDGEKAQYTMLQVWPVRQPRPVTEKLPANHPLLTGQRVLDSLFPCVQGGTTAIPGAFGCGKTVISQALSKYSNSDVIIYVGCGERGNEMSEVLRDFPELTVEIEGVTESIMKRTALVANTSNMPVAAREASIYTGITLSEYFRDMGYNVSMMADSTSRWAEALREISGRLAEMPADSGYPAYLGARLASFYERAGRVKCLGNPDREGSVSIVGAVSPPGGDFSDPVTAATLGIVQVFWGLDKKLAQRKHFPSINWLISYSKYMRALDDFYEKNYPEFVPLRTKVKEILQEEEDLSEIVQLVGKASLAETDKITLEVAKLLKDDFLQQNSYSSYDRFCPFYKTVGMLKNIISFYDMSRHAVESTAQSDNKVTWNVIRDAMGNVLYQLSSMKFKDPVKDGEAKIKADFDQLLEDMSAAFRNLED
compound,measurement,setting,value
Ic1cccc(/C=N/Nc2nc(N3CCOCC3)nc(N(c3ccccc3)c3ccccc3)n2)c1 [vacuolin-1],autophagy inhibition potency in hLCSCs relative to other tumor cell lines (times less potent),[1],10 times
same,invasion of hLCSCs,[2],almost completely inhibited
same,"lysosomal pH, qualitative (LysoSensor Green DND-189)",[3],raised lysosomal pH
same,"lysosomal pH, quantitative ratiometric (LysoSensor Yellow/Blue DND-160)",[3]; control cells pH 4.7,5.2 pH
same,"cell toxicity, treatment alone",[4],little cell toxicity
same,"synergistic effects on inhibiting tumor cell proliferation in combination with taxol, 5-FU, temsirolimus",[4],almost no synergistic effects
same,GPN induced lysosomal Ca2+ release,[5],significantly lowered
same,cell proliferation of hLCSCs,[6],did not affect the cell proliferation
same,migration of hLCSCs,[7],almost completely inhibited
same,autophagic vacuoles under the electron microscope,"[8]; HeLa cells in normal culture conditions, 1 μM",large numbers of autophagic vacuoles were observed
same,lysosome morphology in electron micrograph,"[8]; HeLa cells, versus control",enlarged lysosomes
same,"LC3 puncta (yellow = autophagosomes, red only = autolysosomes)",[9],"potently induced LC3 yellow puncta, not red puncta"
same,V-ATPase activity in vitro,[10],little effects
